# Test results reported in US12624017B2, “Salt form of isoquinolinone type compound as rock inhibitor and preparation method therefor” (GUANGZHOU OCUSUN OPHTHALMIC BIOTECHNOLOGY CO., LTD., priority 2020, dated 2026).
# How the values were obtained:
# [1] = system: New Zealand rabbits with normal intraocular pressure; experiment: Intraocular pressure reduction, normal intraocular pressure, eye drops in both eyes for 14 days (Operation I); format: in vivo, New Zealand white rabbits; settings: for Change in intraocular pressure: vs negative control
# Source text: An intraocular pressure reduction effect and potential ocular toxicity of the compound of formula (I) were inspected with rabbits with normal intraocular pressure by repeated administration of eye drops for 14 days.
# Male New Zealand white rabbits, aged 97 to 127 days, weighted 2.6-3.5 kg, purchased from Pizhou Oriental Breeding Co., Ltd.
# The Male New Zealand white rabbits were randomly divided into 7 groups according to body weights, 6 rabbits/group. The animals in Groups 1 to 7 were administrated dropwise with a solvent/control/test article in both eyes in an administration volume of 50 μL/eye, once a day for 14 consecutive days, and the day of first administration was recorded as Day 1. The intraocular pressures of the animals were measured before administration, as well as at 1, 2, 4, 6, 8 and 10 h after administration, respectively. On Days 2 to 14, the intraocular pressures of animals in the K-115 administration group were measured at 1 h after daily administration; and intraocular pressures of the animals in the remaining groups were measured at 4 h after daily administration.
# [2] = system: New Zealand rabbits with normal intraocular pressure; experiment: Eye irritation response detection with hand-held slit lamp, 14 days eye drops; format: in vivo, New Zealand white rabbits; settings: 0.25 to 4 mg/mL; 14 consecutive days; 50 μl/eye/day
# Description: 42 male New Zealand white rabbits were randomly grouped into 7 groups according to body weights, 6 rabbits/group. Among the animals in Groups 1-7, the left eye was administrated dropwise with normal saline, and the right eye was administrated dropwise with a solvent/control/test article in an administration volume of 50 μL/eye respectively, once a day for 14 consecutive days, and the day of first administration was recorded as Day 1. The intraocular pressures of the animals were measured before administration on Day 1, as well as at 1 h, 2 h, 4 h, 6 h, 8 h and 10 h after administration on Day 1 (Table 10).
# Animals were subjected to eye irritation response detection and fluorescein sodium detection (scored according to scoring criteria) in both eyes with a hand-held slit lamp before the start of test (Day −2/Day −1), before daily administration (Day 1 to Day 14), and at 1 h, 2 h, 4 h, 24 h, 48 h, and 72 h after the last administration (Day 14).
# Animals were subjected to eye irritation response detection in both eyes with a handheld slit lamp on Day −2 to Day −1 before the start of test, before first administration every day (Day 1 to Day 14), and at 1 h, 2 h, 4 h, 24 h, 48 h, and 72 h after the last administration. The scoring criteria were as follows: […]
# [3] = 2.0 mg/mL, Day 1, 1 h after administration
# [4] = 2.0 mg/mL, Day 1, 2 h after administration
# [5] = 2.0 mg/mL, Day 1, 4 h after administration
# [6] = 2.0 mg/mL, Day 1, 6 h after administration
# [7] = 2.0 mg/mL, Day 1, 8 h after administration
# [8] = 2.0 mg/mL, Day 1, 10 h after administration
# [9] = 2.0 mg/mL, Day 1, before administration
# [10] = 4.0 mg/mL once a day, Day 2, 4 h after daily administration
# [11] = 4.0 mg/mL once a day, Day 3, 4 h after daily administration
# [12] = 4.0 mg/mL once a day, Day 4, 4 h after daily administration
# [13] = 4.0 mg/mL once a day, Day 5, 4 h after daily administration
# [14] = 4.0 mg/mL once a day, Day 6, 4 h after daily administration
# [15] = 4.0 mg/mL once a day, Day 7, 4 h after daily administration
# [16] = 4.0 mg/mL, Day 1, 1 h after administration
# [17] = 4.0 mg/mL, Day 1, 2 h after administration
# [18] = 4.0 mg/mL, Day 1, 4 h after administration
# [19] = 4.0 mg/mL, Day 1, 6 h after administration
# [20] = 4.0 mg/mL, Day 1, 8 h after administration
# [21] = 4.0 mg/mL, Day 1, 10 h after administration
# [22] = 4.0 mg/mL, Day 1, before administration
# [23] = 8.0 mg/mL once a day, Day 2, 4 h after daily administration
# [24] = 8.0 mg/mL once a day, Day 3, 4 h after daily administration
# [25] = 8.0 mg/mL once a day, Day 4, 4 h after daily administration
# [26] = 8.0 mg/mL once a day, Day 5, 4 h after daily administration
# [27] = 8.0 mg/mL once a day, Day 6, 4 h after daily administration
# [28] = 8.0 mg/mL once a day, Day 7, 4 h after daily administration
# [29] = 8.0 mg/mL, Day 1, 1 h after administration
# [30] = 8.0 mg/mL, Day 1, 2 h after administration
# [31] = 8.0 mg/mL, Day 1, 4 h after administration
# [32] = 8.0 mg/mL, Day 1, 6 h after administration
# [33] = 8.0 mg/mL, Day 1, 8 h after administration
# [34] = 8.0 mg/mL, Day 1, 10 h after administration
# [35] = 8.0 mg/mL, Day 1, before administration
smiles,measurement,setting,value
Cc1ccc(C(=O)OCn2cc(C)c3c(S(=O)(=O)N4CC[C@H](N)C4)cccc3c2=O)c(C)c1 [Compound of formula (I)],Change in intraocular pressure,"[1]; 2.0 mg/mL once a day, Day 14, 4 h after daily administration",3.91 mmHg
same,Average intraocular pressure in both eyes,[1]; [3],8.56 mmHg
same,Change in intraocular pressure,[1]; [3],1.75 mmHg
same,Average intraocular pressure in both eyes,[1]; [4],7.47 mmHg
same,Change in intraocular pressure,[1]; [4],3.5 mmHg
same,Average intraocular pressure in both eyes,[1]; [5],7.47 mmHg
same,Change in intraocular pressure,[1]; [5],3.84 mmHg
same,Average intraocular pressure in both eyes,[1]; [6],7.25 mmHg
same,Change in intraocular pressure,[1]; [6],4.69 mmHg
same,Average intraocular pressure in both eyes,[1]; [7],8.44 mmHg
same,Change in intraocular pressure,[1]; [7],4.53 mmHg
same,Average intraocular pressure in both eyes,[1]; [8],9.67 mmHg
same,Change in intraocular pressure,[1]; [8],4.75 mmHg
same,Average intraocular pressure in both eyes,[1]; [9],9.67 mmHg
same,Change in intraocular pressure,[1]; [9],0.22 mmHg
same,Average intraocular pressure in both eyes,[1]; [10],6.53 mmHg
same,Change in intraocular pressure,[1]; [10],4.55 mmHg
same,Average intraocular pressure in both eyes,[1]; [11],5.58 mmHg
same,Change in intraocular pressure,[1]; [11],4.81 mmHg
same,Average intraocular pressure in both eyes,[1]; [12],5.53 mmHg
same,Change in intraocular pressure,[1]; [12],5.08 mmHg
same,Average intraocular pressure in both eyes,[1]; [13],6.61 mmHg
same,Change in intraocular pressure,[1]; [13],4.36 mmHg
same,Average intraocular pressure in both eyes,[1]; [14],5.47 mmHg
same,Change in intraocular pressure,[1]; [14],3.84 mmHg
same,Average intraocular pressure in both eyes,[1]; [15],5.56 mmHg
same,Change in intraocular pressure,[1]; [15],4.5 mmHg
same,Change in intraocular pressure,"[1]; 4.0 mg/mL once a day, Day 8, 4 h after daily administration",4.53 mmHg
same,Change in intraocular pressure,"[1]; 4.0 mg/mL once a day, Day 9, 4 h after daily administration",3.97 mmHg
same,Change in intraocular pressure,"[1]; 4.0 mg/mL once a day, Day 10, 4 h after daily administration",4.67 mmHg
same,Change in intraocular pressure,"[1]; 4.0 mg/mL once a day, Day 11, 4 h after daily administration",3.86 mmHg
same,Change in intraocular pressure,"[1]; 4.0 mg/mL once a day, Day 12, 4 h after daily administration",3.64 mmHg
same,Change in intraocular pressure,"[1]; 4.0 mg/mL once a day, Day 13, 4 h after daily administration",4.36 mmHg
same,Change in intraocular pressure,"[1]; 4.0 mg/mL once a day, Day 14, 4 h after daily administration",4.64 mmHg
same,Average intraocular pressure in both eyes,[1]; [16],10.44 mmHg
same,Change in intraocular pressure,[1]; [16],−0.13 mmHg
same,Average intraocular pressure in both eyes,[1]; [17],7.81 mmHg
same,Change in intraocular pressure,[1]; [17],3.16 mmHg
same,Average intraocular pressure in both eyes,[1]; [18],6.47 mmHg
same,Change in intraocular pressure,[1]; [18],4.84 mmHg
same,Average intraocular pressure in both eyes,[1]; [19],6.22 mmHg
same,Change in intraocular pressure,[1]; [19],5.72 mmHg
same,Average intraocular pressure in both eyes,[1]; [20],7.33 mmHg
same,Change in intraocular pressure,[1]; [20],5.64 mmHg
same,Average intraocular pressure in both eyes,[1]; [21],8.64 mmHg
same,Change in intraocular pressure,[1]; [21],5.78 mmHg
same,Average intraocular pressure in both eyes,[1]; [22],9.67 mmHg
same,Change in intraocular pressure,[1]; [22],0.22 mmHg
same,Average intraocular pressure in both eyes,[1]; [23],6.33 mmHg
same,Change in intraocular pressure,[1]; [23],4.75 mmHg
same,Average intraocular pressure in both eyes,[1]; [24],5.78 mmHg
same,Change in intraocular pressure,[1]; [24],4.61 mmHg
same,Average intraocular pressure in both eyes,[1]; [25],5.97 mmHg
same,Change in intraocular pressure,[1]; [25],4.64 mmHg
same,Average intraocular pressure in both eyes,[1]; [26],6.42 mmHg
same,Change in intraocular pressure,[1]; [26],4.55 mmHg
same,Average intraocular pressure in both eyes,[1]; [27],5.56 mmHg
same,Change in intraocular pressure,[1]; [27],3.75 mmHg
same,Average intraocular pressure in both eyes,[1]; [28],5.28 mmHg
same,Change in intraocular pressure,[1]; [28],4.78 mmHg
same,Change in intraocular pressure,"[1]; 8.0 mg/mL once a day, Day 8, 4 h after daily administration",5.59 mmHg
same,Change in intraocular pressure,"[1]; 8.0 mg/mL once a day, Day 9, 4 h after daily administration",4.25 mmHg
same,Change in intraocular pressure,"[1]; 8.0 mg/mL once a day, Day 10, 4 h after daily administration",4.19 mmHg
same,Change in intraocular pressure,"[1]; 8.0 mg/mL once a day, Day 11, 4 h after daily administration",4.16 mmHg
same,Change in intraocular pressure,"[1]; 8.0 mg/mL once a day, Day 12, 4 h after daily administration",3.97 mmHg
same,Change in intraocular pressure,"[1]; 8.0 mg/mL once a day, Day 13, 4 h after daily administration",4.72 mmHg
same,Change in intraocular pressure,"[1]; 8.0 mg/mL once a day, Day 14, 4 h after daily administration",4.03 mmHg
same,Average intraocular pressure in both eyes,[1]; [29],7.69 mmHg
same,Change in intraocular pressure,[1]; [29],2.62 mmHg
same,Average intraocular pressure in both eyes,[1]; [30],6.39 mmHg
same,Change in intraocular pressure,[1]; [30],4.58 mmHg
same,Average intraocular pressure in both eyes,[1]; [31],7.06 mmHg
same,Change in intraocular pressure,[1]; [31],4.25 mmHg
same,Average intraocular pressure in both eyes,[1]; [32],7.11 mmHg
same,Change in intraocular pressure,[1]; [32],4.83 mmHg
same,Average intraocular pressure in both eyes,[1]; [33],7.22 mmHg
same,Change in intraocular pressure,[1]; [33],5.75 mmHg
same,Average intraocular pressure in both eyes,[1]; [34],7.97 mmHg
same,Change in intraocular pressure,[1]; [34],6.45 mmHg
same,Average intraocular pressure in both eyes,[1]; [35],10.17 mmHg
same,Change in intraocular pressure,[1]; [35],−0.28 mmHg
same,Efficacy of single administration (conclusion),"[1]; all tested doses (0.5 to 8.0 mg/mL), compared with K-115",better efficacy
same,Intraocular pressure reduction effect on 14 days of consecutive administration (conclusion),"[1]; dose of 0.5 mg/mL, compared with K-115",significant intraocular pressure reduction effect
same,Eye irritation (conclusion),[2],no irritation
